{"source": "paper PMC9123836", "about": "(Bioorganic & Medicinal Chemistry, 2022)", "key": {"α-glucosidase [1]": {"target": "T1, α-glucosidase (Saccharomyces cerevisiae, UniProt P53341)", "T1 sequence (P53341 whole entry)": "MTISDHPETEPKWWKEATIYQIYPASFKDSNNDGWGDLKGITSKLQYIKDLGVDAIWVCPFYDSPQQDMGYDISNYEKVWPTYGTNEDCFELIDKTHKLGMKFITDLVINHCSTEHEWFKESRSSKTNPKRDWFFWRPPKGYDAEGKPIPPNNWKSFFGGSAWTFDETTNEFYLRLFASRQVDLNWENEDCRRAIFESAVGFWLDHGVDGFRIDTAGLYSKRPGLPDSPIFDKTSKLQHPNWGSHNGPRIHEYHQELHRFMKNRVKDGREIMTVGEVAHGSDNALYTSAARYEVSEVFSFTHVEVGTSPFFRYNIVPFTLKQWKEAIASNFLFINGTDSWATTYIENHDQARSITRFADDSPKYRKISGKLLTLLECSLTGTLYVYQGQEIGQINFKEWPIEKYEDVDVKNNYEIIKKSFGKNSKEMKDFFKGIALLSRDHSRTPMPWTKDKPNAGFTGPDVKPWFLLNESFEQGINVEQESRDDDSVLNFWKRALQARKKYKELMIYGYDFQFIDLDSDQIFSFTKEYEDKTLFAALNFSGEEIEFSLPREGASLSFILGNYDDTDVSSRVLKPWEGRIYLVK", "test": "in vitro α-glucosidase inhibitory activity", "format": "biochemical", "details": "mean ± SD (n = 3); test concentration not given"}, "LO2 cells": {"system": "LO2 cells", "test": "cytotoxicity against normal cells", "format": "cell-based, human", "details": "at the 100 µM level; MTT, 72 h"}, "[2]": {"system": "SARS-CoV-2 spike pseudovirus", "test": "organism not typed", "format": "cell-based"}, "α-glucosidase [3]": {"target": "T1, α-glucosidase", "test": "enzyme kinetic study", "format": "biochemical", "details": "Lineweaver-Burk plot"}}}
{"molecule": "C[C@H]1O[C@H](O[C@H]2[C@H](O)[C@@H](O)[C@@H](O[C@H]3[C@H](O)[C@@H](O)C(O)O[C@@H]3CO)O[C@@H]2CO)[C@H](O)[C@@H](O)[C@@H]1N[C@H]1C=C(CO)[C@@H](O)[C@H](O)[C@H]1O", "note": "(stereo partly shown) [acarbose]", "values": [{"measurement": "Inhibition rate (%)", "setting": "α-glucosidase [1]", "value": "96.4 ± 0.5", "unit": "%"}]}
{"molecule": "C=CCc1cc(CSc2nnc(-c3cccnc3)o2)c(O)c(-c2ccc(O)c(CC=C)c2)c1", "note": "[Compound 9r]", "values": [{"measurement": "survival rates of LO2 cells", "setting": "LO2 cells", "value": "above 80%"}]}
{"molecule": "C=CCc1cc(CSc2nnc(-c3ccccc3)o2)c(O)c(-c2ccc(O)c(CC=C)c2)c1", "note": "[Compound 9a]", "values": [{"measurement": "inhibition of SARS-CoV-2 pseudovirus entry", "setting": "[2]; at 100 μM", "value": "almost completely inhibited"}, {"measurement": "survival rates of LO2 cells", "setting": "LO2 cells", "value": "above 80%"}]}
{"molecule": "C=CCc1cc(-c2cc(CC=C)c3oc(SCc4nnc(-c5cccc(C)c5)o4)nc3c2)c2oc(SCc3nnc(-c4cccc(C)c4)o3)nc2c1", "note": "[Compound 7l]", "values": [{"measurement": "inhibition mode towards α-glucosidase", "setting": "α-glucosidase [3]", "value": "noncompetitive α-glucosidase inhibitor"}, {"measurement": "survival rates of LO2 cells", "setting": "LO2 cells", "value": "above 80%"}]}
{"molecule": "Cc1cc(-c2ccc(/N=N/c3ccc4c(S(=O)(=O)O)cc(S(=O)(=O)O)c(N)c4c3O)c(C)c2)ccc1/N=N/c1ccc2c(S(=O)(=O)O)cc(S(=O)(=O)O)c(N)c2c1O", "note": "[Evans blue, reference compound]", "values": [{"measurement": "IC50", "setting": "[2]; HEK293, read-out: IC50 (µM) against pseudovirus entry", "value": "22 ± 1.98", "unit": "µM"}]}
